PMC8453635, “Piperidine Azasugars Bearing Lipophilic Chains: Stereoselective Synthesis and Biological Activity as Inhibitors of Glucocerebrosidase (GCase)” (The Journal of Organic Chemistry, 2021)

Each compound was assayed against T1, β-galactosidase (Homo sapiens, UniProt P16278) (assay: Human lysosomal glycosidase selectivity screening (leukocyte homogenate)). Conditions: 1 mM, read-out: percentage of inhibition, β-Gal.
T1 construct: from leukocytes isolated from healthy donors (controls); from tissue; host or cells: leukocytes from healthy donors, sonicated homogenate
T1 sequence (P16278 29-677): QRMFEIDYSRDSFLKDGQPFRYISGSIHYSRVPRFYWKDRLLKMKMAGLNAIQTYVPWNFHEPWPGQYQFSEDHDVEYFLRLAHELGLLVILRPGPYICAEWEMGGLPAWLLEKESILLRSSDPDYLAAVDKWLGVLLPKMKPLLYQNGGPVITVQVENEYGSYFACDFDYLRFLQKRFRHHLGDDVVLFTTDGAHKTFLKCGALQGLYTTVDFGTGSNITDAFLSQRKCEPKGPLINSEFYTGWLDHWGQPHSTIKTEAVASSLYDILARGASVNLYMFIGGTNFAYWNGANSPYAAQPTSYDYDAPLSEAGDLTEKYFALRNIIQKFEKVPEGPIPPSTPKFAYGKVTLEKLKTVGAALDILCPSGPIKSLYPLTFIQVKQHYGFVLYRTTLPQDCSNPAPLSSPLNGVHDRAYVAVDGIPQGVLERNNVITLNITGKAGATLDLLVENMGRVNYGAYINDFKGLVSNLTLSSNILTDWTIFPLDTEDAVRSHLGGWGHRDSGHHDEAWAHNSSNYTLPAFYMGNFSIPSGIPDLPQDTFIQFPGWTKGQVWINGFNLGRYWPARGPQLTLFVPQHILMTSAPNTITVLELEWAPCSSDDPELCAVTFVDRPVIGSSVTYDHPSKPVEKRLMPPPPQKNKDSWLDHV
Format: biochemical
Protocol: In order to avoid undesired inhibitory side effects of a potential new drug, it has to be selective for a given target. The selectivity of the newly synthesized compounds 14, 15, and 33·HCl toward GCase was then investigated, evaluating their inhibition at 1 mM concentration toward six other lysosomal glycosidases (namely, α-and β-mannosidases, α- and β-galactosidases, α-fucosidase, and α-glucosidase) in cell homogenates (leucocytes or lymphocytes) isolated from healthy donors. […] Indeed, only moderate inhibitory activity (ca. 50%) was found toward human β-galactosidase for both piperidines 14 and 15, while negligible inhibitory activity was detected in all other cases.
The effect of 1 mM concentration of 14, 15, and 33·HCl was assayed toward six lysosomal glycosidases other than GCase, namely, α-mannosidase, β-mannosidase, α-galactosidase, β-galactosidase, α-fucosidase from leukocytes isolated from healthy donors (controls) and α-glucosidase from lymphocytes isolated from healthy donors’ flesh blood (controls). […]
μL, Sigma –Aldrich) in acetate buffer (0.1M, pH 4.3) containing NaCl (0.1M) and sodium azide (0.02%) were incubated at 37 °C for 1 h. The reaction was stopped by addition o f sodium carbonate (200 μL; 0.5M, pH 10.7) containing Triton X -100 (0.0025 %), and the fluorescence 4 -methylumbelliferone released by β-galactosidase activity was measured in SpectraMax M2 microplate reader ( λex=365 nm, λem=435 nm; Molecular Devices). […]
α-Fucosidase activity was measured in a flat -bottomed 96 -well plate. […]
α-Glucosidase activity was measured in a flat –bottomed 96 well plate. […] The reaction was stopped by the addition of a solution of sodium carbonate (200 µL; 0.5M, pH 10.7) containing Triton X -100 (0.0025 %), and the fluorescence of 4 -methylumbelliferone released by α-glucosidase activity was measured in […]
Figure S 48. […] The corresponding calculated percentage of inhibition is indicated above each bar.
With `CCCCCCCC[C@@H]1[C@@H](O)[C@H](O)[C@H](O)CN1C(CCCCCCC)CCCCCCC.Cl` [compound 33·HCl, (2R,3R,4R,5R)-2-Octyl-1-(pentadecan-8-yl)-piperidine-3,4,5-triol Hydrochloride] the inhibition at 1000 µM was 15%. With `CCCCCCCC[C@@H]1[C@@H](O)[C@H](O)[C@H](O)CN1CCCCCCCC` [compound 15, (2R,3R,4R,5R)-1,2-Dioctylpiperidine-3,4,5-triol] the inhibition at 1000 µM was 51%. Compound `CCCCCCCC[C@H]1[C@@H](O)[C@H](O)[C@H](O)CN1CCCCCCCC` [compound 14, (2S,3R,4R,5R)-1,2-Dioctylpiperidine-3,4,5-triol] has an inhibition at 1000 µM of 48%.
